# Measured values: patent publication US7914780B1, “Aminopeptidase A (APA) targeting peptides for the treatment of cancer” (Board of Regents, the University of Texas System, priority 2000, dated 2011)
# Peptide text beside a SMILES is read from it.
# What was measured:
# [1] = target: T1, APA-transfected SK-RC-49 cells (Homo sapiens, UniProt Q07075); assay: Cell surface panning of CX3CX3CX3C phage display library on APA-transfected cells; format: binding; conditions: for Round 2 (%) - share of randomly selected phage clones displaying the sequence: after second round of panning on SK-RC-49/APA cells
# T1 construct: stably transfected with a mammalian expression vector encoding the full-length APA cDNA; expressed in transfected cells; host or cells: SK-RC-49 renal carcinoma cells (SK-RC-49/APA)
# Experimental: Briefly, 10^10 transducing units (TU) of a CX3CX3CX3C (SEQ ID NO:14; C, cysteine; X, any amino acid residue) phage display random library are pre-absorbed on SK-RC-49 parental cells. The pre-cleared CX3CX3CX3C phage library (˜10^10 TU) is added to 106 detached APA-transfected SK-RC-49 cells in binding medium (20 mM HEPES, 2% FCS in DMEM). Cell panning was performed at 4° C. to minimize post-binding events such as receptor-mediated internalization (Giordano et al., 2001). Cells were washed with binding medium and cell bound phage were recovered and amplified by infection of K91Kan E. coli. Serial dilutions were plated on Luria-Bertani (LB) agar plates with tetracycline and kanamycin. The number of TU was determined by bacterial colony counting.
# The inventors pre adsorbed 1010 transducing units (TU) of a CX3CX3CX3C (C, cysteine; X, any amino acid residue; SEQ ID NO:14) phage display random library on SK-RC-49 parental cells. Next, the pre-cleared CX3CX3CX3C (SEQ ID NO:14) phage library (˜1010 TU) was added to 106 detached APA-transfected SK-RC-49 cells in binding medium (20 mM HEPES, 2% FCS in DMEM). Cell panning was performed at 4° C. to minimize post-binding events such as receptor-mediated internalization (Giordano et al., 2001). Cells were washed with binding medium and cell bound phage were recovered and amplified by infection of K91 Kan E. coli. Serial dilutions were plated on Luria-Bertani (LB) agar plates with tetracycline and kanamycin. The number of TU was determined by bacterial colony counting.
# To identify peptides capable of binding to APA, the inventors screened APA-transfected cells with a phage display library (Smith and Scott, 1993). The inventors stably transfected SK-RC-49 renal carcinoma cells with a vector expressing full-length APA cDNA. APA functionality was verified in transfected cells by an enzyme activity assay specific for APA.
# [2] = tested on: HMECs; assay: Endothelial cell growth assay (crystal violet); format: cell-based, human
# Experimental: HMECs were seeded (˜10,000 cells/well) and allowed to attach for 24 hours in complete M199 medium (Sigma; St. Louis, Mo.). The indicated concentrations of […] (SEQ ID NO:2) or 1 mM negative control peptide were added to the cells in complete M199 medium. HMECs were then serially fixed in 2.5% glutaraldehyde, stained with 0.1% crystal violet in 20% methanol, and solubilized in 10% acetic acid. Cell growth was evaluated by measuring absorbance at 590 nm. A calibration curve with linear correlation between absorbance and cell number (103-105 HMECs) was used for the assay.
# (§1) Because of the enzymatic inhibitory activity of APA-binding peptides, the inventors reasoned that they might affect endothelial cell function. The inventors correlated the effect of APA inhibition by the […] (SEQ ID NO:2) peptide on the migration and proliferation of endothelial cells. The inventors used human dermal microvascular endothelial cells (HMEC) in which the APA expression was verified by immunostaining with RC38 and the APA activity by its specific enzyme assay. […] (SEQ ID NO:2) peptide suppressed the migration of HMECs in the Boyden chamber assay (FIG. 3B). Suppression in cell migration was dose-dependent and commensurate with inhibition of APA enzymatic activity. […] Similarly, proliferation of HMECs was suppressed by […] (SEQ ID NO:2) (˜40% at 1 mM) in a dose-dependent manner (FIG. 3C).
# [3] = tested on: HMECs; assay: Three-dimensional cell culture on Matrigel (cord/tube formation); format: cell-based, human
# Experimental: Matrigel (BD Biosciences; Bedford, Mass.) was added to 48-well tissue culture plates and allowed to solidify at 37° C. HMECs (˜10^4 cells) were added to the wells and allowed to adhere to the Matrigel for 30 minutes at 37° C. Cell medium was replaced containing the indicated concentrations of […] (SEQ ID NO:2) or a negative control peptide (both at 1 mM) in complete medium. Plates were examined and photographed after 16 hours.
# To determine whether inhibition of APA enzyme activity with […] (SEQ ID NO:2) peptide would affect angiogenesis, the effect of the peptide was tested in vitro and in vivo. First, the inventors evaluated the ability of HMECs to differentiate into capillary-like structures characteristic of angiogenesis in the presence of […] (SEQ ID NO:2) on a gel of reconstituted basement membrane matrix (Matrigel). The formation of cord/tube-like structures was progressively impaired by increasing concentrations of […] (SEQ ID NO:2) peptide, relative to the network formation in controls without peptide (FIG. 4A, upper left panel) or with an unrelated control peptide at 1 mM concentration (FIG. 4A, upper right panel). The number and length of capillary-like branching structures was reduced at 0.3 mM […] […]
# [4] = tested on: EF43-fgf4-derived tumors; assay: Experimental therapy of EF43-fgf4-derived tumors; format: in vivo, Balb/c mice
# Experimental: For experimental therapy, Balb/c mice bearing EF43-fgf4-derived tumors were established and tumor volumes determined as described (Deroanne et al., 1997; Hajitou et al., 2001). Treatments in tumor-bearing mice were started 5 (peptides) to 7 days (antibodies) after cell inoculation (10^5 cells/mouse). Reagents were administered by ip and sc routes.
# Tumor-bearing mice received vehicle, [sequence] (SEQ ID NO:2) or control peptides and tumors were monitored (FIG. 7B).
# The inventors used an established regimen of two anti-APA monoclonal antibodies (ASD-37/41) with synergistic APA inhibitory properties (Assmann et al., 1992, Mentzel et al., 1999) on the same animal model. Tumor-bearing mice received vehicle, ASD-37/41, or isotype control IgG and tumors were monitored (FIG. 7C).
# [5] = tested on: VEGF-induced CAM neovascularization; assay: Chick embryo chorioallantoic membrane (CAM) assay; format: in vivo, chicken
# Experimental: Fertilized chicken eggs were incubated in constant humidity at 37° C. for 3 days. Two to three ml of albumin was removed through a square opening to detach the developing CAM. The opening was sealed with a glass plate and the eggs were incubated for 5 days. […] […] CAMs were examined daily until day 12, photographed in ovo with a stereomicroscope and emerging capillaries were counted (Ribatti et al., 1997).
# In this in vivo model, neovascularization is stimulated with VEGF adsorbed on to a gelatin sponge placed on the CAM. […] CAMs were examined on E12 and neovascularization was quantified by counting the number of emerging capillaries (FIG. 4B). Significant induction of neovascularization (57.0±1.41 blood vessels) was found when a sponge with VEGF was placed on the CAM compared to a sponge with no growth factors (12.0±2.8 blood vessels; t-test, P<0.01). […]
# [6] = tested on: HMECs; assay: Chemotaxic (Boyden chamber) cell migration assay; format: cell-based, human
# Experimental: Cell migration assays were performed in a 48-well Boyden chamber (NeuroProbe; Gaithersburg, Md.) as described (Bussolino et al., 1995). Indicated concentrations of […] (SEQ ID NO:2) peptide or negative control peptide (1 mM) were placed in the lower chamber compartment in complete M199 medium. Subconfluent HMECs were harvested and 1×10^5 cells were seeded in the upper chamber compartment in complete M199 medium. Cells were allowed to migrate for 5 h at 37° C. in a humidified 5% CO2 atmosphere. Filter was removed and cells on the upper side were scraped off. Migrated cells were fixed and Giemsa-stained.
# as §1
# [7] = target: aminopeptidase N (Homo sapiens, UniProt P15144); assay: Aminopeptidase N enzymatic activity; format: biochemical
# [8] = target: T2, SK-RC-49/APA cells (Homo sapiens, UniProt Q07075); assay: Phage binding assay on SK-RC-49/APA cells versus SK-RC-49 cells; conditions: for Phage binding to SK-RC-49/APA cells relative to SK-RC-49 cells: individual phage clones
# T2 construct: stably transfected with a mammalian expression vector encoding the full-length APA cDNA; expressed in transfected cells; host or cells: SK-RC-49 renal carcinoma cells (SK-RC-49/APA)
# Experimental: Binding assays were performed on cells with 109 TU phage input. Increasing concentrations of synthetic […] (SEQ ID NO:2) or control peptides were used to evaluate competitive inhibition of phage binding. APA was immunocaptured on microtiter wells with RC38 and incubated with 109 TU of phage in 3% BSA in PBS. Wells were washed with 1% BSA, 0.01% Tween-20 in PBS and phage were recovered by infection of K91kan E. coli. Serial dilutions were plated on LB agar plates containing tetracycline and kanamycin. The number of TU was determined by bacterial colony counting.
# Phage displaying enriched peptide motifs were tested individually for APA binding. Phage displaying the inserts […] (SEQ ID NO:3), […] (SEQ ID NO:1) or […] The inventors synthesized peptides containing APA-binding motifs (consensus sequence […] (SEQ ID NO:2); Table 1). Binding of phage displaying […] Binding of […] Whether the selected peptides would bind to the isolated APA protein was also evaluated. […] The inventors used phage displaying […] (SEQ ID NO:3), […] (SEQ ID NO:4), or […] (SEQ ID NO:1) in binding assays to the immunocaptured APA.
# [9] = tested on: MDA-MB-435 human breast carcinoma-derived tumor xenografts; assay: Tumor homing of phage in vivo; parameters: species or system nude mice; conditions: intravenous
# Experimental: Nude mice bearing tumor xenografts derived from MDA-MB-435 human breast cancer cells were generated as described (Arap et al., 1998). 109 TU of […] (SEQ ID NO:8)-displaying phage or fd-tet phage were injected intravenously to anesthetized mice. Phage were allowed to circulate for 5 minutes and the animals were perfused through the left ventricle of the heart with DMEM. The tumor and control organs were dissected and equal amounts of tissue were homogenized. Homogenates were washed with ice-cold DMEM containing a protease inhibitor cocktail (Sigma; St. Louis, Mo.) and 0.1% BSA. Tissue-bound phage were recovered as described above the cell panning. Tissue samples from the injected animals were fixed, sectioned at 5 μm and stained with an anti-M13 antibody.
# The inventors next evaluated the ability of APA binding peptides to home to tumor blood vessels in vivo. Phage were administered intravenously to nude mice bearing human breast carcinoma MDA-MB-435-derived xenografts. Phage homing was quantified by recovery from tissue homogenates by bacterial infection. […] […] Homing of […] (SEQ ID NO:3) phage to tumor vasculature was confirmed by immunohistochemical staining of phage on tissue sections.
# [10] = 1 mM peptide in VEGF-adsorbed sponge, E12
# [11] = competition with synthetic peptide
# [12] = negative control peptide (1 mM)
# T2 sequence (Q07075 whole entry): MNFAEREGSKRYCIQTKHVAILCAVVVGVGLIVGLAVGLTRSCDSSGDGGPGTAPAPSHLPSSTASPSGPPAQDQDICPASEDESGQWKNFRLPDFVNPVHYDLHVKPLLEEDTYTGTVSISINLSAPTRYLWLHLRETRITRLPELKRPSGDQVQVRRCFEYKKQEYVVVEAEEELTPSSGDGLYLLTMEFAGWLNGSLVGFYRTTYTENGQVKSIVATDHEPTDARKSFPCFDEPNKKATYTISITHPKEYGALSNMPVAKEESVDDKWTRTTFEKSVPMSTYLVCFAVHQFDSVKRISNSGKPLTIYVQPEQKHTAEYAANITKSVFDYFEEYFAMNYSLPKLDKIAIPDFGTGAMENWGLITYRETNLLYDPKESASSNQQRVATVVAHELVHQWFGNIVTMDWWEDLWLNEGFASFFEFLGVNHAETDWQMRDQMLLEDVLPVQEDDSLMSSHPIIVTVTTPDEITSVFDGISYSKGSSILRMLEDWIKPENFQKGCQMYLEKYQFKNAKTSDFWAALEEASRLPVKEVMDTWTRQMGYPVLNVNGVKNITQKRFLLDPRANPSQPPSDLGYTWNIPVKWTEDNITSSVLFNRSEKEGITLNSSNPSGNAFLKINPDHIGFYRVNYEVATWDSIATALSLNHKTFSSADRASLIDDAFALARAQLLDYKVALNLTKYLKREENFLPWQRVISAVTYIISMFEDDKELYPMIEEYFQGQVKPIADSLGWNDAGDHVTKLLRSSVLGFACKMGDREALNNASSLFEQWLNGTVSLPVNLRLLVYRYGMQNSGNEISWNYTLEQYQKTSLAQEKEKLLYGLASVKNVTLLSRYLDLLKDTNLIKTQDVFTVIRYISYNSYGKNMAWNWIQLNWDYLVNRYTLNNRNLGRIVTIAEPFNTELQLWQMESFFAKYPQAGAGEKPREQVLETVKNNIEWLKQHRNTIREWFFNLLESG
# T1 sequence (Q07075 whole entry): as above
# aminopeptidase N, sequence (P15144 whole entry, species assumed): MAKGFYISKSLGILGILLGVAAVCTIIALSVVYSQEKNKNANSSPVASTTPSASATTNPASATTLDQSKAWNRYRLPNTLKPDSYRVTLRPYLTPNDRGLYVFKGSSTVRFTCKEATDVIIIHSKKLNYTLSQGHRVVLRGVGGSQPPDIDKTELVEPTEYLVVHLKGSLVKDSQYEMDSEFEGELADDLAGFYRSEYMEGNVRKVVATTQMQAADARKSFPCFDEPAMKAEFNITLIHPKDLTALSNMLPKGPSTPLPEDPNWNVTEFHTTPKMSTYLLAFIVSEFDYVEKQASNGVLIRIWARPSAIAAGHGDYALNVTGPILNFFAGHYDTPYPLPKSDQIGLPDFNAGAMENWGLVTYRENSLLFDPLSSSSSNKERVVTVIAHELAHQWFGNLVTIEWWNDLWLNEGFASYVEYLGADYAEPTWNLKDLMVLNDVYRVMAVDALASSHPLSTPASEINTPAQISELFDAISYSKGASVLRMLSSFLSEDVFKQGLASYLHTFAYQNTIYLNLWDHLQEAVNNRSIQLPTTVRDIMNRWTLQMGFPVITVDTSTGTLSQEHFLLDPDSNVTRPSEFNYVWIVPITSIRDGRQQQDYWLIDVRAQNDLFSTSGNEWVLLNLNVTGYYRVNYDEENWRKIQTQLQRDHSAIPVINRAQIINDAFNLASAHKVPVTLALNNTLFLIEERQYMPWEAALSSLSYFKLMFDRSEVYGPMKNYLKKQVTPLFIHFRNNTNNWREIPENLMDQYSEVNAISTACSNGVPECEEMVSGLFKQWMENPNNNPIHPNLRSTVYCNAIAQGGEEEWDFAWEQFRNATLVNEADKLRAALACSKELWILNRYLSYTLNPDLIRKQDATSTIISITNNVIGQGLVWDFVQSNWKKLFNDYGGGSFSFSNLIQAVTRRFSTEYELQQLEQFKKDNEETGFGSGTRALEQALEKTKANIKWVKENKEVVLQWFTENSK
compound,measurement,setting,value
CSGLCTVQCLEGC (phage-displayed),Round 2 (%) - share of randomly selected phage clones displaying the sequence,[1],5%
CC[C@H](C)[C@H](NC(=O)[C@H](CO)NC(=O)[C@H](CCC(=O)O)NC(=O)[C@H](CS)NC(=O)[C@H](CCC(=O)O)NC(=O)[C@H](CCCNC(=N)N)NC(=O)[C@@H]1CCCN1C(=O)[C@@H](N)CS)C(=O)N[C@@H](CS)C(=O)O (H-CPRECESIC-OH),Inhibition of cell proliferation,[2]; 0.3 mM peptide,Inhibition of cell proliferation was also observed
same,Suppression of proliferation of HMECs,[2]; 1 mM peptide,~40%
same,Effect on cell proliferation,[2]; peptide concentrations lower than 0.3 mM,no significant effect
same,Number and length of capillary-like branching structures,[3]; 0.3 mM peptide,reduced
same,Cell interconnections and capillary network organization,[3]; 1 mM peptide,severely lost
same,Tumor volume,"[4]; peptides 250 μg/mouse/dose, end of two weeks","1,366±190 mm^3"
same,Effect on number or branching of the growing blood vessels,[5]; 0.1 mM and 0.3 mM peptide,did not affect
same,Inhibition of VEGF-induced CAM neovascularization,[5]; [10],40%
same,Number of emerging capillaries,[5]; [10],35.5±1.4 blood vessels
same,Inhibition of cell migration,[6]; 100 μM peptide,significant inhibition
same,Suppression in cell migration,"[6]; 1 mM peptide, 5 h",Up to 60%
same,Effect on enzymatic activity of aminopeptidase N,[7],did not affect
CYNLCIRECESICGADGACWTWCADGCSRSC (phage-displayed),Round 2 (%) - share of randomly selected phage clones displaying the sequence,[1],50%
same,Round 3 (%) - share of randomly selected phage clones displaying the sequence,[1]; after third round of panning on SK-RC-49/APA cells,100%
same,Effect of synthetic CPRECESIC peptide on phage binding to SK-RC-49/APA cells,[8]; [11],inhibited by the synthetic peptide
same,Phage binding to SK-RC-49/APA cells relative to SK-RC-49 cells,[8],preferentially bound to SK-RC-49/APA cells
CPRECESN,Efficacy in vivo,"[4]; mouse, in vivo",showed efficacy in vivo
CLGQCASICVNDC,Round 2 (%) - share of randomly selected phage clones displaying the sequence,[1],5%
same,Effect of synthetic […] peptide on phage binding to SK-RC-49/APA cells,[8]; [11],not affected by the synthetic peptide
same,Phage binding to SK-RC-49/APA cells relative to SK-RC-49 cells,[8],preferentially bound to SK-RC-49/APA cells
"GACVRLSACGA [negative control peptide, unrelated synthetic peptide used as a negative control unless otherwise indicated, reference compound]",Effect on cell proliferation,[2]; [12],affected neither cell migration nor proliferation
same,Number of emerging capillaries,[5]; [10],56.5±2.12 blood vessels
same,Effect on cell migration,[6]; [12],affected neither cell migration nor proliferation
CSMMCLEGCDDWC (phage-displayed),Round 2 (%) - share of randomly selected phage clones displaying the sequence,[1],5%
CAVACWADCQLGC,Round 2 (%) - share of randomly selected phage clones displaying the sequence,[1],5%
CPKVCPRECESNC (phage-displayed),Round 2 (%) - share of randomly selected phage clones displaying the sequence,[1],5%
same,Phage homing by recovery from tissue homogenates,[9]; tumor versus control organs (brain),enriched in tumors compared to control organs
same,Phage homing by immunohistochemical staining of tissue sections,[9]; tumor versus normal brain blood vessels,Strong phage staining was observed in tumor blood vessels
same,Effect of synthetic […] peptide on phage binding to SK-RC-49/APA cells,[8]; [11],inhibited by the synthetic peptide
same,Phage binding to SK-RC-49/APA cells relative to SK-RC-49 cells,[8],preferentially bound to SK-RC-49/APA cells
CGTGCAVECEVVC,Round 2 (%) - share of randomly selected phage clones displaying the sequence,[1],5%
